Test [1] deals with LNCaP-104S cells. The settings on record: androgen-dependent LNCaP-104S; cited from earlier work.
Test [2] relates to LNCaP-104R1 cells. The conditions noted are these: androgen independent LNCaP-104R1; cited from earlier work.
The test system of test [3] is mir-17, mir-18a, mir-18b, mir-20a and mir-106a. The experiment in a line: Genome-wide miRNA array profiling of LNCaP-104S cells upon CDX treatment. In kind it is cell-based. The conditions noted are these: CDX (5 μM) treatment and androgen blockade (CSFBS), vs untreated LNCaP-104S. An excerpt:
We used genome-wide miRNA array (1113 unique primers System Biosciences) profiling approach to dentify specific miRNAs that compensate for androgen ablation. Androgen-dependent (AD) subline of LNCaP cells LNCaP-104S (-104S) and its androgen independent (AI) derivative LNCaP-104R1 (-104R1) were used for monitoring differential expression of miRNAs upon treatment with casodex (CDX). LNCaP-104S cells are CDX-sensitive, whereas LNCaP-104R1 cells are not despite these cells express androgen receptor (AR) at a basal level higher than LNCaP-104S cells. LNCaP-104S cells require DHT for maintaining their AD status but when treated with CDX for 3 weeks in CSFBS (charcoal-stripped FBS), CDX insensitive colonies develop that are independent of androgen (CDXR). We profiled miRNA expression in −104S cells untreated and at 1 wk and 3 wks of treatment with CDX (5 μM) and CSFBS (Table 1). We also compared miRNA expression in untreated −104R1 cells. The ΔΔCT values were obtained for each sample (treatment condition) using LNCaP-104S untreated as the control.

In test [4] the test system is Frabin (FGD4). The experiment in a line: Western blotting of Frabin in extracts of CDX treated LNCaP-104S cells. The settings on record: western blot. In kind it is cell-based. An excerpt: FIG. 2. Expression of FGD4 in untreated LNCap-104R1, LNCaP-104S and LNCaP-104S cells treated with CDX and androgen withdrawal. FIG. 2 A: Western blot of the whole cell extracts. FIG. 2 B: Densitometric analysis of the expression. Data represents the average of 3 separate analyses.
Identification of targets regulated by our candidate miRNAs by MiRDB and TargetScan database search reveled a protein Frabin (FGD4), a GEF that is potentially regulated by mir-17, -21a and -106a and received higher target scores in both searches.
On the technique in general: In western blotting, separated proteins are transferred to a membrane and probed.

Consider one molecule from patent US20150238519A1, “THERAPY FOR DRUG RESISTANT CANCER” (University of Central Florida Research Foundation, Inc., priority 2014, published 2015).

Consider `CC(O)(CS(=O)(=O)c1ccc(F)cc1)C(=O)Nc1ccc(C#N)c(C(F)(F)F)c1` (stereo not shown) [CDX], for which the CDX sensitivity entry in test [1] was “CDX-sensitive”; in test [2], “are not”. In addition, the “down regulation of mir-17, mir-18a, mir-18b, mir-20a and mir-106a” value in test [3] is 9-10 fold. The “increase in expression of Frabin” value in test [4] was over 2.0 fold.
